Source: ChEMBL document CHEMBL1125706, “An approach to the design of receptor-type-selective non-peptide antagonists of peptidergic receptors: delta opioid antagonists” (J Med Chem, 1991)
Non-standard residues stand in square brackets, D forms with d. Residues, ends and D or L forms follow the SMILES beside them. *: point of attachment. Tyr(Nα,Nα-allyl2) = C=CCN(CC=C)[C@@H](Cc1ccc(O)cc1)C(=O)*; Aib = CC(C)(N)C(=O)O

How the values were obtained:
[1] = molecular target: T1, Opioid receptors; delta & kappa (Homo sapiens) (UniProt P41145+P41143); assay: Ke selectivity ratio (kappa/delta) of the compound; assay type: protein assay
T1 sequence (P41143 whole entry, looked up): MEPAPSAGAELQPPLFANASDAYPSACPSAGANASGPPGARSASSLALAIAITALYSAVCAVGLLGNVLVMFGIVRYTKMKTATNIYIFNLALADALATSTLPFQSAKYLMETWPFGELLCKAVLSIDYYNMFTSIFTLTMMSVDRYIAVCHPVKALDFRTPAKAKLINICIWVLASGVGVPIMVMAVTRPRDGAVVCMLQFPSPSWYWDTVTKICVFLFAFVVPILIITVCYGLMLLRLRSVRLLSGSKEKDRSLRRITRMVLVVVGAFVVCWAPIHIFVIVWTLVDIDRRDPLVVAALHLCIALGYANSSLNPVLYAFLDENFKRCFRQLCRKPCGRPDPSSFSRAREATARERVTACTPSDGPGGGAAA
T1 sequence (P41145 whole entry, looked up): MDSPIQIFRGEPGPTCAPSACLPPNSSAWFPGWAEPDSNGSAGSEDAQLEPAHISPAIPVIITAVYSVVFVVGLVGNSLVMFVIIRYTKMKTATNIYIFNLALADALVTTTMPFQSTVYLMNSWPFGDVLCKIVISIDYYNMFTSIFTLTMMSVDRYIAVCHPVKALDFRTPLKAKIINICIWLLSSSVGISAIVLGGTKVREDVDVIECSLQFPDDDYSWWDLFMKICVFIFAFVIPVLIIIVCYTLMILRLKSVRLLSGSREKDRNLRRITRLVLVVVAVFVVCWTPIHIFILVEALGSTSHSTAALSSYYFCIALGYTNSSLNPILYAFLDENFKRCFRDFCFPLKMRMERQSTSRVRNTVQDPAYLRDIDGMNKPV

[2] = molecular target: T2, Opioid receptors; mu & delta (Homo sapiens) (UniProt P41143+P35372); assay: Ke selectivity ratio (mu/delta) of the compound; assay type: protein assay
T2 sequence (P35372 whole entry, looked up): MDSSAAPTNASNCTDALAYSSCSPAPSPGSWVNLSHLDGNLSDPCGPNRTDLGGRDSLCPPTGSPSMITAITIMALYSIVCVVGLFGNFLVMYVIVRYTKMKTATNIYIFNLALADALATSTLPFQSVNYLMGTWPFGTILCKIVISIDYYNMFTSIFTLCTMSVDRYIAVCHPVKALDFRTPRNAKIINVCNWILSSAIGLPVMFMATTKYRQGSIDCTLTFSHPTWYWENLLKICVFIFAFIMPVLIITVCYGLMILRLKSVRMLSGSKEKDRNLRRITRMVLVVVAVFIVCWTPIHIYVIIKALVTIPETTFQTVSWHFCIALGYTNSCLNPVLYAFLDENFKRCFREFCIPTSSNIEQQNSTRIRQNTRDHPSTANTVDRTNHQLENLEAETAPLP
T2 sequence (P41143 whole entry, looked up): as the sequence (P41143 whole entry, looked up) above

[3] = molecular target: T1, Opioid receptors; delta & kappa (Homo sapiens); assay: Ki selectivity ratio (kappa/delta) of the compound; assay type: protein assay
[4] = molecular target: T2, Opioid receptors; mu & delta (Homo sapiens); assay: Ki selectivity ratio (mu/delta) of the compound; assay type: protein assay
[5] = molecular target: Kappa-type opioid receptor (Cavia porcellus, UniProt P41144); assay: Compound was evaluated for binding affinity of Opioid receptor kappa 1 in guinea pig brain membranes; assay type: cell membranes, Membrane
Kappa-type opioid receptor, sequence (P41144 whole entry): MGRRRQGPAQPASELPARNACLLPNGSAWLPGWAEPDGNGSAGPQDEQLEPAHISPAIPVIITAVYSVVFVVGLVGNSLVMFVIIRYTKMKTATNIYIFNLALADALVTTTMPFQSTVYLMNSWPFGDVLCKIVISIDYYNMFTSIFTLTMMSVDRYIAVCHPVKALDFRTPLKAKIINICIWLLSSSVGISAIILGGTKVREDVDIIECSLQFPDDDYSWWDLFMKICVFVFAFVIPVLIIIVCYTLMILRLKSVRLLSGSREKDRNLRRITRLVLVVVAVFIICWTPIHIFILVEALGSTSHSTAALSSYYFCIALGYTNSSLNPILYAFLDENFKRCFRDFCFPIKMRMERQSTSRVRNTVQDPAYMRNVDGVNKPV

[6] = molecular target: Delta-type opioid receptor (Mus musculus) (UniProt P32300); assay: Compound was evaluated for antagonist potency in the mouse vas deferens preparation using [D-Ala2,D-Leu5]enkephalin (Opioid receptor delta 1); assay type: functional
Delta-type opioid receptor (Mus musculus), sequence (P32300 whole entry): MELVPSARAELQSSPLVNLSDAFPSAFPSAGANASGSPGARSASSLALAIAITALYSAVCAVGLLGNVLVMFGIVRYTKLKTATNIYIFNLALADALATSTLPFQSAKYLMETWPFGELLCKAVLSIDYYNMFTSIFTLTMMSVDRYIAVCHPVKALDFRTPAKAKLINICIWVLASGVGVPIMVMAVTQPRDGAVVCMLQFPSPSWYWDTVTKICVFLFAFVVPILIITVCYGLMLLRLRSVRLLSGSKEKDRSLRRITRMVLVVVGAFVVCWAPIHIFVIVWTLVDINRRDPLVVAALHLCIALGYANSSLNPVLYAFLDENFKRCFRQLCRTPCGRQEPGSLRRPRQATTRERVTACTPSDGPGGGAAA

Compound | Selectivity ratio [1] | Selectivity ratio [2] | Selectivity ratio [3] | Selectivity ratio [4] | Ki [5] [nM] | Ke [6] [nM]
C=CCN(CC=C)[C@@H](Cc1ccc(O)cc1)C(=O)NC(C)(C)C(=O)NC(C)(C)C(=O)N[C@@H](Cc1ccccc1)C(=O)N[C@@H](CC(C)C)C(=O)O ({Tyr(Nα,Nα-allyl2)}-[Aib][Aib]FL-OH) | > 18 | > 24 | > 29 | > 29 |  | 
Oc1ccc2c3c1O[C@H]1c4oc5ccccc5c4C[C@@]4(O)[C@@H](C2)N(CC2CC2)CC[C@]314 [NALTRIBEN] |  |  |  |  | 152 | 0.27
